The text below walks through data of EP1923473B1, “Bis-diglycolamides (BISDGA) as new extractants for lanthanides [Ln(III)] and actinides [An(III)] from aqueous high-level wastes” (Universidad Autónoma de Madrid, priority 2006, dated 2008).

Holding throughout (type): physicochemical
Assay [1] in a line: Batch extraction from simulated HLLW from the PUREX process. To be noted: for Distribution coefficients Sr: 0.1 mol/L in TPH/1-octanol (90:10). As for the experimental part:
(§1) The feed solution used for the extraction tests is a simulated solution of an HLLW from the PUREX process, the composition of which is shown in Table 4. Table 4: Composition of the simulated HLLW-PUREX solution used for the extraction tests
The composition of the HLLW corresponds to a burn-up of 33 GWd/tHM, the generated volume of HLLW being 5000 1/t of fuel. […] Oxalic acid and N-(2-hydroxyethyl)ethylenediaminotriacetate (HEDTA) were also added before the extraction tests.
(§2) The concentrations of the stable elements were determined by mass spectrometry with an inductively coupled plasma source (ICP-MS) in a DRC Elan 6100 device of Perkin Elmer Sciex. The aqueous phase was measured directly after the appropriate dilution. The organic phase was analyzed after having mineralized the organic matter by microwave acid digestion and subsequent dilution.
(§3) The distribution coefficients were calculated for each element according to section C).
(§4) Extraction experiments were carried out with said simulated HLLW in a pure form and also adding oxalic acid and HEDTA to it.
as §4

Assay [2] can be described thus: Batch extraction from simulated HLLW from the PUREX process, alpha spectrometry. To be noted: 0.1 mol/L in TPH/1-octanol (90:10).
Excerpt: as §1
The composition of the HLLW corresponds to a burn-up of 33 GWd/tHM, the generated volume of HLLW being 5000 1/t of fuel. The feed was spiked with ^241Am, ^244Cm, ^252Cf and ^152Eu. Oxalic acid and N-(2-hydroxyethyl)ethylenediaminotriacetate (HEDTA) were also added before the extraction tests.
500 µL of the aqueous and organic phases were spiked with 10 µL of a tracer solution containing 241Am, 244Cm, 252Cf and ^152Eu, and were equilibrated for 10 minutes while they were stirred vigorously in a vortex stirrer. After the separation of the phases by centrifugation, 200 µL aliquots of each phase were taken for the determination of the concentration of ^241Am and ^152Eu using a high-purity germanium spectrometer system (EG&G Ortec). The nuclides ^241Am, ^244Cm and ^252Cf were measured by alpha spectrometry with an α-Analyst device of the company Canberra-Packard GmbH, Germany.
as §2, §3
A 0.1 mol/L solution of compound 4 in the "TPH/1-octanol (90:10)%vol" mixture was prepared. Extraction experiments were carried out with said simulated HLLW in a pure form and also adding oxalic acid and HEDTA to it. These complexing agents have shown to be effective in the DIAMEX process for the complexing of Mo, Zr (H2C2O4) and Pd (HEDTA).
as §4

Assay [3] is described as follows: Eu/Am selectivity factor in extraction from 3 mol/L nitric acid. As to conditions: 0.1 mol/L in TPH/1-octanol (50:50)%vol; aqueous [HNO3] 3 mol/L. As for the experimental part:
(§5) 600 µL of the organic phase of the compound to be studied, previously equilibrated, were contacted with 600 µL of aqueous phase consisting of a 3 mol/L nitric acid solution spiked with 600 Bq of ^152Eu and 600 Bq of ^241Am. It was stirred vigorously by means of an oscillating shaker for 30 minutes and the phases were separated by centrifugation at 5000 rpm. 400 µL were taken from each of the phases for determining the concentration of the radionuclides ^152Eu and ^241Am. This determination was carried out by means of the high energy gamma spectrometry technique with a high-purity Ge detector (Canberra Inc.), using the 122 keV line for the determination of ^152Eu concentration and the 59.5 keV line for the determination of ^241Am concentration. The distribution coefficient was calculated by relating the concentration of each of the radionuclides in the organic phase and in the aqueous phase, according to the expression: DM = ([M]org)/([M]aq) [formula]
The Eu/Am selectivity factor was calculated by relating the corresponding distribution coefficients of Eu with those of Am in the same experimental conditions: SFEu/Am = DEu /DAm [formula]
(§6) The distribution coefficients and the selectivity factor of each of them were determined as indicated in sections A) to C).

Assay [4] in a line: Extraction capability from aqueous 3 mol/L nitric acid. As to conditions: 0.1 mol/L in TPH/1-octanol (50:50)%vol; aqueous [HNO3] 3 mol/L spiked with 152Eu(III) and 241Am(III). As for the experimental part: The organic solutions of the extractant compounds to be tested were prepared dissolving an amount of the extractant compound in the solvent considered in each case to reach the ligand concentration of 0.1 mol/L. The solvents considered were 1-octanol, n-heptane, n-dodecane, the industrial solvent "TPH" (hydrogenated tetrapropylene) used in the "La Hague" reprocessing plant of the COGEMA company (Compagnie générale des matières nucléaires) and different mixtures "TPH/1-octanol or n-dodecane/1-octanol".
Once said solution was obtained, its equilibration was carried out. To that end, 800 µL of the organic solution of the compound to be studied were contacted with 800 µL of nitric acid of 3 mol/L concentration and it was stirred vigorously in an oscillating shaker for 5 minutes. The phases were separated by centrifugation at 5000 rpm. 800 µL of the said organic phase were again contacted with 800 µL of nitric acid of 3 mol/L concentration for another 5 minutes of vigorous shaking. The phases were separated by centrifugation, the organic phase being considered to be equilibrated.
as §5, §6

A short description of assay [5]: Re-extraction with diluted nitric acid solutions. To be noted: 0.1 mol/L in TPH/1-octanol (95:5)%vol; for re-extraction steps necessary: 0.016 mol/L of stable Eu(III) present. As to the method:
0.1 mol/L samples of compound 4 in a "TPH/1-octanol (95:5)%vol" mixture were prepared. Extractions of Am(III) and Eu(III) were carried out from 3 mol/L nitric acid solutions containing only the radionuclides ^152Eu and ^241Am and 3 mol/L nitric acid solutions containing the radionuclides ^152Eu and ^241Am and 0.016 mol/L of stable Eu(III), simulating the total concentration of Ln(III) in a HLLW from the PUREX process. Once the extraction process was carried out, a washing step with a 1 mol/L nitric acid solution was carried out. Then, different re-extraction steps were carried out with 0.01 mol/L nitric acid solutions, simulating a continuous process. The evolution of the concentration of Am(III) and Eu(III) in the organic phase in the different extraction, scrubbing and re-extraction steps is shown in Figure 14.
Nevertheless, it is possible to regenerate the organic solutions of compound 18 for subsequent extraction cycles in an industrial continuous process.

[6] abbreviates: Oxalic acid 0.2 mol/L, HEDTA 0.05 mol/L, TBP 0.5 mol/L.
Setting [7] is: Oxalic acid 0.2 mol/L, HEDTA 0.05 mol/L, TBP No.
Setting [8] is: Oxalic acid 0.3 mol/L, HEDTA 0.05 mol/L, TBP 0.5 mol/L.
Where [9] appears, read: Oxalic acid 0.3 mol/L, HEDTA 0.05 mol/L, TBP No.
Setting [10] is: Oxalic acid No, HEDTA No, TBP 0.5 mol/L.
[11] abbreviates: Oxalic acid No, HEDTA No, TBP No.

Consider “2-Dioctylcarbamoylmethoxy-N-[3-[(2-dioctylcarbamoyl-methoxy-acetylamino)methyl]benzyl]acetamide [Compound 4]”, for which the “factor by which the Sr distribution coefficient is lower than that obtained with TODGA” value in assay [1] was 10. The substance further displayed a Dsr in assay [1] (0.1 mol/L in TPH/1-octanol (90:10)%vol, summary of all conditions) of less than 0.13. In addition, the “Distribution coefficients Sr” value was 0.071 in assay [1] (setting [6]); 0.110 in assay [1] (setting [7]); 0.099 in assay [1] (setting [8]); 0.132 in assay [1] (setting [9]); 0.061 in assay [1] (setting [10]); 0.071 in assay [1] (setting [11]). For the same substance, the “Distribution coefficients Am-241, α” value was 52 in assay [2] (setting [6]); 158 in assay [2] (setting [7]); 83 in assay [2] (setting [8]); 164 in assay [2] (setting [9]); 58 in assay [2] (setting [10]); 112 in assay [2] (setting [11]). This substance showed an SFEu/Am in assay [3] of 4.3. The same substance came in with a DAm in assay [4] of 33. Moreover, the DEu in assay [4] is 141. Moreover, in assay [5] (0.01 mol/L nitric acid), the re-extraction steps necessary entry was “an additional re-extraction step is necessary”. The “Am(III) and Eu(III) recovered from the organic phase” value in assay [5] (tracers only (152Eu and 241Am), after three re-extraction steps with 0.01 mol/L nitric acid) is given as “more than 99.9%”.
Regarding “2-Dioctylcarbamoylmethoxy-N-[3-[3-(2-dioctylcarbamoyl-methoxyacetylamino)propoxy]propyl]acetamide [Compound 18]”, the “Distribution coefficients Am-241, α” value in assay [2] (setting [6]) was 55; in assay [2] (setting [7]), 46; in assay [2] (setting [8]) it was 90; in assay [2] (setting [9]) it was 87; in assay [2] (setting [10]), 56; in assay [2] (setting [11]), 96. The SFEu/Am in assay [3] worked out at 6.0. The substance further gave a DAm in assay [4] of 29. Also, in assay [4], the DEu came out at 177. Further, in assay [5] (0.01 mol/L nitric acid), the re-extraction steps necessary result is recorded as “six re-extraction steps”. Also, in assay [5] (only the radionuclides 152Eu and 241Am present, 0.01 mol/L nitric acid), the “re-extraction steps for complete re-extraction” value is recorded as “four re-extraction steps”.
